Source: patent publication US6593373B2, “Pharmaceutical compositions of O-desmethyl-N-mono-desmethyl-tramadol” (Gruenenthal GmbH, priority 2000, dated 2003)
pIC50: −log10 of the molar value. Where two headings read alike, the source gives them in different places.

Columns and labels:
μ-opioid receptor = target: T1, μ-opioid receptor (Rattus norvegicus, UniProt P33535); assay: μ-opioid (Naloxon) binding, in vitro rat brain
T1 construct: from tissue; host or cells: rat brain
From the text: The μ-opioid receptor binding was investigated in in vitro rat brain binding experiments using naloxone.

[1] = test system: neuronal uptake of norepinephrine (NE); assay: Noradrenaline uptake inhibition, in vitro rat brain; format: biochemical; details: for pIC50: read-out: Noradrenalin uptake IC50
From the text: The inhibition of neuronal uptake of monoamines (norepinephrine; NE) was investigated in in vitro rat brain binding experiments.

[2] = test system: neuronal uptake of Serotonin (5-HT); format: biochemical; details: rat brain
From the text: The inhibition of neuronal uptake of Serotonin (5-HT) was investigated in in vitro rat brain binding experiments.

[3] = test system: mice phenylquinone writhing; assay: Phenylquinone writhing test; format: in vivo
Description: Analgesia was tested in vivo in the mice phenylquinone writhing test. M5 was intravenously administered.

mice tail-flick = assay: Tail-flick test; details: for Tail-Flick, mouse ED50 i.v. / Analgesia in tail-flick test, in words / Tail-Flick, mouse ED50 i.c.v.: mouse
Description: Analgesia was tested in vivo in the mice tail-flick test. M5 was first intravenously administered and then directly into a brain ventricle.

[4] = rat brain, naloxone, read-out: Naloxone binding IC50

T1 sequence (P33535 whole entry): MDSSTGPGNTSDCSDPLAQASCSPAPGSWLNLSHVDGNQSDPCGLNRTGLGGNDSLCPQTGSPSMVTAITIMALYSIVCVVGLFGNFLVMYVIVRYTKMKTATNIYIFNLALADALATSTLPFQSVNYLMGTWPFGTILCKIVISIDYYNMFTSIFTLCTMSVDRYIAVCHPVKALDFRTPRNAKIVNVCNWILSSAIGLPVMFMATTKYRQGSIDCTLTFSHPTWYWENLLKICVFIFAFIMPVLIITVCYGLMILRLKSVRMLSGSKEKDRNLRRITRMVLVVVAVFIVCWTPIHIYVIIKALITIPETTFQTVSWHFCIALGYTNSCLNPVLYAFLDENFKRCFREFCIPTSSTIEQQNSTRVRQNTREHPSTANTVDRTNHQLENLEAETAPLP

| SMILES | pIC50 (μ-opioid receptor; [4]) | pIC50 [1] | pIC50 [2] | Writhing, mouse ED50 i.v. [3] | Tail-Flick, mouse ED50 i.v. (mice tail-flick) | pIC50 (μ-opioid receptor) | μ-opioid receptor affinity (naloxone binding), in words (μ-opioid receptor; rat brain) | Inhibition of norepinephrine uptake, in words [1] | Inhibition of serotonin uptake, in words [2] | Writhing, mouse ED50 i.c.v. [3] | Analgesia in writhing test, in words ([3]; mouse, intravenous administration) | Penetration of the blood brain barrier, in words (mice tail-flick; concluded from i.v. versus i.c.v. analgesia) | Analgesia in tail-flick test, in words (mice tail-flick; direct administration into a brain ventricle) | Tail-Flick, mouse ED50 i.c.v. (mice tail-flick) | Analgesia in tail-flick test, in words (mice tail-flick; intravenously administered) | ED50 ([3]; iv, mouse) | ED50 (mice tail-flick; Mus musculus, iv, read-out: Tail-Flick, mouse ED50 i.v.) |
| --- | --- | --- | --- | --- | --- | --- | --- | --- | --- | --- | --- | --- | --- | --- | --- | --- | --- |
| COc1cccc([C@@]2(O)CCCC[C@@H]2CN)c1 [M3] | 3.69 | 4.32 | 4.31 | no effect | no effect | – | – | – | – | – | – | – | – | – | – | – | – |
| CNCC1CCCCC1(O)c1cccc(O)c1 (stereo not drawn) [M5, O-desmethyl-N-mono-desmethyl-tramadol] | – | 4.88 | 3.92 | no effect | no effect | 6.51 | strong enough to induce in vivo analgesia | no pronounced effect | no pronounced effect | 4.99 μg/animal | no pronounced effect | poor penetration of the blood brain barrier | a pronounced effect was seen | 32.4 μg/animal | no pronounced effect | – | – |
| COc1cccc([C@@]2(O)CCCC[C@@H]2CN(C)C)c1 (racemic) [Tramadol, (1RS, 2RS)-2[(dimethylamino)methyl]-1-(3-methoxyphenyl)-cyclohexanol] | – | – | – | – | – | – | – | – | – | 67.3 μg/animal | – | – | – | 98.0 μg/animal | – | 6.93 mg/kg | 13.6 mg/kg |
| CNCC1CCCCC1(O)c1cccc(OC)c1 (stereo not drawn) [M2] | 4.31 | 5.37 | 4.98 | no effect | no effect | – | – | – | – | – | – | – | – | – | – | – | – |
| CN(C)C[C@H]1CCCC[C@]1(O)c1cccc(O)c1 [M1] | – | 4.38 | 4.62 | 0.49 mg/kg | 1.90 mg/kg | – | – | – | – | 0.58 μg/animal | – | – | – | 2.1 μg/animal | – | – | – |
| NC[C@H]1CCCC[C@]1(O)c1cccc(O)c1 [M4] | 4.62 | 3.98 | 3.43 | no effect | no effect | – | – | – | – | – | – | – | – | – | – | – | – |
